Data from ChEMBL document CHEMBL5608163, “Structure modification of anoplin for fighting resistant bacteria” (Eur J Med Chem, 2024).
≈ marks a conversion by molar mass, not a printed value. Bridge positions count the residues as written; N and C are the ends. Square brackets hold non-standard residues; d marks the D form. Peptide text beside a SMILES is read from it. I, II: the chains in the order shown. * marks the point of attachment. ξ: configuration not given here. Pentadecanoyl = CCCCCCCCCCCCCCC(=O)*; Lauroyl = CCCCCCCCCCCC(=O)*; Decanoyl = CCCCCCCCCC(=O)*; Octanoyl = CCCCCCCC(=O)*; ξK = NCCCCC(N)C(=O)O; Butyryl = CCCC(=O)*

What was measured:
[1] = test system: Erythrocyte; test: Hemolytic activity in human erythrocyte incubated for 70 mins by absorbance based assay; type: toxicity, cell-based; conditions: 1.167 h
[2] = test system: Bacillus subtilis; test: Antibacterial activity against Bacillus subtilis ATCC 23857 assessed as reduction in bacterial cell growth incubated for 16 to 24 hrs by CLSI-protocol based Mueller-Hinton Broth micro-dilution method; type: functional; conditions: time 16-24 hrs
[3] = test system: Escherichia coli; test: Antibacterial activity against Escherichia coli ATCC 25922 assessed as reduction in bacterial cell growth incubated for 16 to 24 hrs by CLSI-protocol based Mueller-Hinton Broth micro-dilution method; type: functional; conditions: time 16-24 hrs
[4] = test system: Staphylococcus aureus; test: Antibacterial activity against Staphylococcus aureus ATCC 25923 assessed as reduction in bacterial cell growth incubated for 16 to 24 hrs by CLSI-protocol based Mueller-Hinton Broth micro-dilution method; type: functional; conditions: time 16-24 hrs
[5] = test system: Pseudomonas aeruginosa; test: Antibacterial activity against Pseudomonas aeruginosa ATCC 27853 assessed as reduction in bacterial cell growth incubated for 16 to 24 hrs by CLSI-protocol based Mueller-Hinton Broth micro-dilution method; type: functional; conditions: time 16-24 hrs
[6] = test system: Klebsiella pneumoniae; test: Antibacterial activity against Klebsiella pneumoniae ATCC 700603 assessed as reduction in bacterial cell growth incubated for 16 to 24 hrs by CLSI-protocol based Mueller-Hinton Broth micro-dilution method; type: functional; conditions: time 16-24 hrs
[7] = test system: Bacillus subtilis; test: Antibacterial activity against Bacillus subtilis ATCC 23857 assessed as reduction in bacterial cell growth measured for 18 hrs by Mueller-Hinton broth based two-fold serial dilution method; type: functional
[8] = test system: Escherichia coli; test: Antibacterial activity against Escherichia coli ATCC 25922 assessed as reduction in bacterial cell growth measured for 18 hrs by Mueller-Hinton broth based two-fold serial dilution method; type: functional
[9] = test system: Klebsiella pneumoniae; test: Antibacterial activity against Klebsiella pneumoniae ATCC 700603 assessed as reduction in bacterial cell growth measured for 18 hrs by Mueller-Hinton broth based two-fold serial dilution method; type: functional
[10] = test system: Staphylococcus aureus; test: Antibacterial activity against Staphylococcus aureus ATCC 25923 assessed as reduction in bacterial cell growth measured for 18 hrs by Mueller-Hinton broth based two-fold serial dilution method; type: functional
[11] = test system: Pseudomonas aeruginosa; test: Antibacterial activity against Pseudomonas aeruginosa ATCC 27853 assessed as reduction in bacterial cell growth measured for 18 hrs by Mueller-Hinton broth based two-fold serial dilution method; type: functional

Compound	HC10 [1]	MIC [2]	MIC [3]	MIC [4]	MIC [5]	MIC [6]	MIC [7]	MIC [8]	MIC [9]	MIC [10]	MIC [11]
CC[C@H](C)[C@H](NC(=O)[C@H](CCCNC(=N)N)NC(=O)[C@H](CCCCN)NC(=O)[C@H](CC(C)C)NC(=O)[C@H](CC(C)C)NC(=O)CN)C(=O)N[C@@H](CCCCN)C(=O)N[C@H](C(=O)N[C@@H](CC(C)C)C(=O)N[C@@H](CC(C)C)C(=O)NCCCCC(NC(=O)[C@H](CC(C)C)NC(=O)[C@H](CC(C)C)NC(=O)[C@@H](NC(=O)[C@H](CCCCN)NC(=O)[C@@H](NC(=O)[C@H](CCCNC(=N)N)NC(=O)[C@H](CCCCN)NC(=O)[C@H](CC(C)C)NC(=O)[C@H](CC(C)C)NC(=O)CN)[C@@H](C)CC)[C@@H](C)O)C(N)=O)[C@@H](C)O (some centres not stated) (I: H-GLLKRIKTLL[ξK]-NH2 / II: H-GLLKRIKTLL; amide I:11-II:C)	51.2 µM	4 µM (≈ 9.67 µg/mL)	8 µM (≈ 19.3 µg/mL)	16 µM (≈ 38.7 µg/mL)	8 µM (≈ 19.3 µg/mL)	8 µM (≈ 19.3 µg/mL)					
CCCCCCCC(=O)NCC(=O)N[C@@H](CC(C)C)C(=O)N[C@@H](CC(C)C)C(=O)N[C@@H](CCCCN)C(=O)N[C@@H](CCCNC(=N)N)C(=O)N[C@H](C(=O)N[C@@H](CCCCN)C(=O)N[C@H](C(=O)N[C@@H](CC(C)C)C(=O)N[C@@H](CC(C)C)C(=O)NCCCCC(NC(=O)[C@H](CC(C)C)NC(=O)[C@H](CC(C)C)NC(=O)[C@@H](NC(=O)[C@H](CCCCN)NC(=O)[C@@H](NC(=O)[C@H](CCCNC(=N)N)NC(=O)[C@H](CCCCN)NC(=O)[C@H](CC(C)C)NC(=O)[C@H](CC(C)C)NC(=O)CNC(=O)CCCCCCC)[C@@H](C)CC)[C@@H](C)O)C(N)=O)[C@@H](C)O)[C@@H](C)CC (some centres not stated) (I: Octanoyl-GLLKRIKTLL[ξK]-NH2 / II: Octanoyl-GLLKRIKTLL; amide I:11-II:C)	5.67 µM	32 µM (≈ 85.5 µg/mL)	16 µM (≈ 42.7 µg/mL)	64 µM (≈ 171 µg/mL)	128 µM (≈ 342 µg/mL)	32 µM (≈ 85.5 µg/mL)					
CCCCCCCCCCCCCCC(=O)NCC(=O)N[C@@H](CC(C)C)C(=O)N[C@@H](CC(C)C)C(=O)N[C@@H](CCCCN)C(=O)N[C@@H](CCCNC(=N)N)C(=O)N[C@H](C(=O)N[C@@H](CCCCN)C(=O)N[C@H](C(=O)N[C@@H](CC(C)C)C(=O)N[C@@H](CC(C)C)C(N)=O)[C@@H](C)O)[C@@H](C)CC (Pentadecanoyl-GLLKRIKTLL-NH2)							8 µM (≈ 11 µg/mL)	16 µM (≈ 22 µg/mL)	32 µM (≈ 44.1 µg/mL)	16 µM (≈ 22 µg/mL)	16 µM (≈ 22 µg/mL)
CCCC(=O)NCC(=O)N[C@@H](CC(C)C)C(=O)N[C@@H](CC(C)C)C(=O)N[C@@H](CCCCN)C(=O)N[C@@H](CCCNC(=N)N)C(=O)N[C@H](C(=O)N[C@@H](CCCCN)C(=O)N[C@H](C(=O)N[C@@H](CC(C)C)C(=O)N[C@@H](CC(C)C)C(=O)NCCCCC(NC(=O)[C@H](CC(C)C)NC(=O)[C@H](CC(C)C)NC(=O)[C@@H](NC(=O)[C@H](CCCCN)NC(=O)[C@@H](NC(=O)[C@H](CCCNC(=N)N)NC(=O)[C@H](CCCCN)NC(=O)[C@H](CC(C)C)NC(=O)[C@H](CC(C)C)NC(=O)CNC(=O)CCC)[C@@H](C)CC)[C@@H](C)O)C(N)=O)[C@@H](C)O)[C@@H](C)CC (some centres not stated) (I: Butyryl-GLLKRIKTLL[ξK]-NH2 / II: Butyryl-GLLKRIKTLL; amide I:11-II:C)	27.61 µM	4 µM (≈ 10.2 µg/mL)	4 µM (≈ 10.2 µg/mL)	8 µM (≈ 20.5 µg/mL)	8 µM (≈ 20.5 µg/mL)	8 µM (≈ 20.5 µg/mL)					
CCCCCCCC(=O)NCC(=O)N[C@@H](CC(C)C)C(=O)N[C@@H](CC(C)C)C(=O)N[C@@H](CCCCN)C(=O)N[C@@H](CCCNC(=N)N)C(=O)N[C@H](C(=O)N[C@@H](CCCCN)C(=O)N[C@H](C(=O)N[C@@H](CC(C)C)C(=O)N[C@@H](CC(C)C)C(N)=O)[C@@H](C)O)[C@@H](C)CC (Octanoyl-GLLKRIKTLL-NH2)	210.63 µM	8 µM (≈ 10.2 µg/mL)	16 µM (≈ 20.5 µg/mL)	8 µM (≈ 10.2 µg/mL)	8 µM (≈ 10.2 µg/mL)	16 µM (≈ 20.5 µg/mL)					
I: Lauroyl-GLLKRIKTLL[ξK][ξK]-NH2 / II: Lauroyl-GLLKRIKTLL[ξK] / III: Lauroyl-GLLKRIKTLL / IV: Lauroyl-GLLKRIKTLL (amide I:11-IV:C, I:12-II:C, II:11-III:C)	210.92 µM	256 µM	125 µM	256 µM	256 µM	256 µM					
I: Decanoyl-GLLKRIKTLL[ξK][ξK]-NH2 / II: Decanoyl-GLLKRIKTLL[ξK] / III: Decanoyl-GLLKRIKTLL / IV: Decanoyl-GLLKRIKTLL (amide I:11-IV:C, I:12-II:C, II:11-III:C)	12.51 µM	256 µM	256 µM	256 µM	256 µM	256 µM					
CCCCCCCCCC(=O)NCC(=O)N[C@@H](CC(C)C)C(=O)N[C@@H](CC(C)C)C(=O)N[C@@H](CCCCN)C(=O)N[C@@H](CCCNC(=N)N)C(=O)N[C@H](C(=O)N[C@@H](CCCCN)C(=O)N[C@H](C(=O)N[C@@H](CC(C)C)C(=O)N[C@@H](CC(C)C)C(=O)NCCCCC(NC(=O)[C@H](CC(C)C)NC(=O)[C@H](CC(C)C)NC(=O)[C@@H](NC(=O)[C@H](CCCCN)NC(=O)[C@@H](NC(=O)[C@H](CCCNC(=N)N)NC(=O)[C@H](CCCCN)NC(=O)[C@H](CC(C)C)NC(=O)[C@H](CC(C)C)NC(=O)CNC(=O)CCCCCCCCC)[C@@H](C)CC)[C@@H](C)O)C(N)=O)[C@@H](C)O)[C@@H](C)CC (some centres not stated) (I: Decanoyl-GLLKRIKTLL[ξK]-NH2 / II: Decanoyl-GLLKRIKTLL; amide I:11-II:C)	26.56 µM	256 µM (≈ 698 µg/mL)	64 µM (≈ 175 µg/mL)	256 µM (≈ 698 µg/mL)	256 µM (≈ 698 µg/mL)	128 µM (≈ 349 µg/mL)					
